Data reported in ChEMBL document CHEMBL1123161, “Synthesis and evaluation of 4-(substituted thio)-4-androstene-3,17-dione derivatives as potential aromatase inhibitors” (J Med Chem, 1986).
pKi: −log10 of the molar value.

Assays:
[1] = target: T1, Aromatase (Homo sapiens, UniProt P11511)
T1 sequence (P11511 whole entry): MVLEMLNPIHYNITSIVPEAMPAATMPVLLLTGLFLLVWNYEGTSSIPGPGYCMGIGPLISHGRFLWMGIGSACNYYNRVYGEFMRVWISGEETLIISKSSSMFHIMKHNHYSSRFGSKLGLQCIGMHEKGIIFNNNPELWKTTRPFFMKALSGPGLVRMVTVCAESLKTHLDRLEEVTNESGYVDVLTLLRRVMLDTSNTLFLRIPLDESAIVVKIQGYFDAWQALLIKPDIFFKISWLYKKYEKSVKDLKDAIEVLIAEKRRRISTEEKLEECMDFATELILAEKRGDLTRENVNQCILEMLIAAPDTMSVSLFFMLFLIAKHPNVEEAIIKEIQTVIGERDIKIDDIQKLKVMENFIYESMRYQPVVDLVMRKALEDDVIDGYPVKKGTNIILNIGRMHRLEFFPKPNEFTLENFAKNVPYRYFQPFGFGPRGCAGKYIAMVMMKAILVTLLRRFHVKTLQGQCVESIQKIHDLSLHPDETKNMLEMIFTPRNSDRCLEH
Description: (§1) Inhibition of Cytochrome P450 19A1 at the concentration of 1.5 uM

[2] = target: T1, Aromatase; assay: Evaluated for its competitive inhibitory activity against Cytochrome P450 19A1 with the use of human placental microsomal preparation; design: species or system Placenta; details: read-out: Ki app
[3] = target: T1, Aromatase; remark: listed apart in the source
Description: (§2) Inhibition of Cytochrome P450 19A1 at the concentration of 0.75 uM

[4] = target: T1, Aromatase; remark: listed apart in the source
Description: (§3) Inhibition of Cytochrome P450 19A1 at the concentration of 0.25 uM

[5] = target: T1, Aromatase; details: 0.75 µM
Description: as §2

[6] = target: T1, Aromatase; details: 0.25 µM
Description: as §3

[7] = target: T1, Aromatase; details: 1.5 µM
Description: as §1

Row | SMILES | inhibition at 1.5 µM [1] [%] | pKi [2] | inhibition at 0.75 µM [3] [%] | inhibition at 0.25 µM [4] [%] | Inhibition [5] [%] | Inhibition [6] [%] | Inhibition [7] [%]
1 | CC(=O)SC1=C2CCC3C4CCC(=O)C4(C)CCC3C2(C)CCC1=O (stereo not drawn) | 58 | 7.14 | 42 | 19 | – | – | –
2 | CCSC1=C2CCC3C4CCC(=O)C4(C)CCC3C2(C)CCC1=O (stereo not drawn) | 52 | 7.39 | 45 | 26 | – | – | –
3 | CCCSC1=C2CCC3C4CCC(=O)C4(C)CCC3C2(C)CCC1=O (stereo not drawn) | 49 | 7.19 | 42 | 25 | – | – | –
4 | CCCCCSC1=C2CCC3C4CCC(=O)C4(C)CCC3C2(C)CCC1=O (stereo not drawn) | 8 | – | 4 | 2 | – | – | –
5 | Cc1ccc(SC2=C3CCC4C5CCC(=O)C5(C)CCC4C3(C)CCC2=O)cc1 (stereo not drawn) | 31 | – | 27 | 14 | – | – | –
6 | CC12CCC3C(CCC4=C(SCc5ccccc5)C(=O)CCC43C)C1CCC2=O (stereo not drawn) | 8 | – | 5 | 2 | – | – | –
7 | CC(=O)OC1=C2CCC3C4CCC(=O)C4(C)CCC3C2(C)CCC1=O (stereo not drawn) | 78 | – | 70 | 38 | – | – | –
8 | CC12CCC3C(CCC4=C(Sc5ccccc5)C(=O)CCC43C)C1CCC2=O (stereo not drawn) | 68 | 7.44 | 55 | 36 | – | – | –
9 | CC12CCC3C(CCC4=C(Sc5ccc([N+](=O)[O-])cc5)C(=O)CCC43C)C1CCC2=O (stereo not drawn) | 0 | – | 0 | 0 | – | – | –
10 | CCCCSC1=C2CCC3C4CCC(=O)C4(C)CCC3C2(C)CCC1=O (stereo not drawn) | 18 | – | 12 | 8 | – | – | –
11 | CSC1=C2CCC3C4CCC(=O)C4(C)CCC3C2(C)CCC1=O (stereo not drawn) | 74 | 7.23 | 61 | 39 | – | – | –
12 | CC12CCC3C(CCC4=C(S)C(=O)CCC43C)C1CCC2=O (stereo not drawn) | 63 | – | 52 | 31 | – | – | –
13 | CC12CCC3C(CCC4=C(Sc5ccc(Br)cc5)C(=O)CCC43C)C1CCC2=O (stereo not drawn) | 6 | – | 4 | 0 | – | – | –
14 | COc1ccc(SC2=C3CCC4C5CCC(=O)C5(C)CCC4C3(C)CCC2=O)cc1 (stereo not drawn) | 2 | – | 0 | 0 | – | – | –
15 | CC12CCC3C(CCC4=C(Sc5ccc(N)cc5)C(=O)CCC43C)C1CCC2=O (stereo in doubt) | – | 7.74 | – | – | 70 | 46 | 82
16 | CC12CCC3C(CCC4=C(Sc5ccc(N)cc5)C(=O)CCC43C)C1CCC2=O (stereo in doubt; 14) | – | – | – | – | 0 | 0 | 0
17 | C[C@]12CCC(=O)C(O)=C1CC[C@@H]1[C@@H]2CC[C@]2(C)C(=O)CC[C@@H]12 [FORMESTANE] | 84 | 7.27 | 74 | 49 | – | – | –
